This passage reports IC50 results from US11530180B2, “Alpha-5 beta-1 inhibitors” (The Regents of the University of California, priority 2019, dated 2022).

pIC50: −log10 of the molar value. Some results are limits rather than exact numbers.

Sequence of alpha-5-beta-1 integrin (P08648 42-894): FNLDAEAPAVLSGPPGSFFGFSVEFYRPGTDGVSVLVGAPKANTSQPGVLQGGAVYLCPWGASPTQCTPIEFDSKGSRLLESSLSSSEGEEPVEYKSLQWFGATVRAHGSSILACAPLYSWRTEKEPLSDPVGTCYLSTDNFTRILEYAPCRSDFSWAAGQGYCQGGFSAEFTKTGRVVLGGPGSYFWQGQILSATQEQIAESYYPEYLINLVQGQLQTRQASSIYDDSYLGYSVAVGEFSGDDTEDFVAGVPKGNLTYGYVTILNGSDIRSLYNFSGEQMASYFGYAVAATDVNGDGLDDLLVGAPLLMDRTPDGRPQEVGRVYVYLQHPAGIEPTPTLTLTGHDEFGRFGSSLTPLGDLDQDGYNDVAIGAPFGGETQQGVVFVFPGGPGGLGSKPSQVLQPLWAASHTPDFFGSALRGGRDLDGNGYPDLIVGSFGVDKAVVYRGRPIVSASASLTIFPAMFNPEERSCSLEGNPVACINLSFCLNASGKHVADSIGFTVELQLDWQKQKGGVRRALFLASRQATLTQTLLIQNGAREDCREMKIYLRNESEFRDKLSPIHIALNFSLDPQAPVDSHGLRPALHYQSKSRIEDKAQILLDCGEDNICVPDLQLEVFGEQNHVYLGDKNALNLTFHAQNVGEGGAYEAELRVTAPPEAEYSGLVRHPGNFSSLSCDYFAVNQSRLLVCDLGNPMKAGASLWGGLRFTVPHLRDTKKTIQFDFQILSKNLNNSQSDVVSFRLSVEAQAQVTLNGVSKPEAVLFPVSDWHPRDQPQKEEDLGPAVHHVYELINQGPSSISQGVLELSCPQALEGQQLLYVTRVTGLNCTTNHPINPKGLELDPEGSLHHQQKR
Sequence of alpha-5-beta-1 integrin (P08648 895-1049 partner): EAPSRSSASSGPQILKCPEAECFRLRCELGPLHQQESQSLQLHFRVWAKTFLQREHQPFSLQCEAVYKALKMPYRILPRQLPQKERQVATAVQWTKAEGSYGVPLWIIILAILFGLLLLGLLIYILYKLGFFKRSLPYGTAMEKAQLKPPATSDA
Sequence of alpha-5-beta-1 integrin (P05556 21-798): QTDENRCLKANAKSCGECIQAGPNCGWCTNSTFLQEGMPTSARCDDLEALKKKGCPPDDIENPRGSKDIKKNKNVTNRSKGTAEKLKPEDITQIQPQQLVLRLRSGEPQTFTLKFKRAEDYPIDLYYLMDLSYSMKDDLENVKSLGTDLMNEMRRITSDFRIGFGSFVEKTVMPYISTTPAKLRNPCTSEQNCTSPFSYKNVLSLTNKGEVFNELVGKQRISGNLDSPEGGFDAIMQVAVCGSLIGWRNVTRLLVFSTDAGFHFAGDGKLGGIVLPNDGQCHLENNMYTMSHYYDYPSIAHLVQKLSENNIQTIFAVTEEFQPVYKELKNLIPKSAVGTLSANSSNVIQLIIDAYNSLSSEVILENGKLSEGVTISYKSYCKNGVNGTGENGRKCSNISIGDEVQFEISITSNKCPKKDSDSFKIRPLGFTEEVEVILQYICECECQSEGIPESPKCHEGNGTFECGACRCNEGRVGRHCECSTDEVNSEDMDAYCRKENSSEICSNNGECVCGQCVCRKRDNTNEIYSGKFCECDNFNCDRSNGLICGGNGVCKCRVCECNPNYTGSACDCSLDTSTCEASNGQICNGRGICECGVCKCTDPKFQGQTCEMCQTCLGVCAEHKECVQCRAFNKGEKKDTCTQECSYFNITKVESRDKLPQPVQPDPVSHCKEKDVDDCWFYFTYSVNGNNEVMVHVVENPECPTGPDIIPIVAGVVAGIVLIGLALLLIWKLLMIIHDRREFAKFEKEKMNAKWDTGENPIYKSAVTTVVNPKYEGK

The first assay addresses alpha-5-beta-1 integrin (Homo sapiens (Human), UniProt P05556+P08648). Description: alpha-5-beta-1 integrin cell adhesion assay (SW480 cells on human plasma fibronectin). Type of assay: cell-based. The following applies: alpha-5-beta-1 integrin cell adhesion assay following Example 1; Table 2. The protocol: Cell Adhesion Assay. Evaluation of cell attachment to extracellular matrix proteins was performed as previously described by Yokosaki et al, J. Biol. Chem., 271: (39): 24144-24150 (1996). Briefly, wells of non-tissue culture-treated polystyrene 96-well flat-bottom microtiter plates (Linbro/Titertek, Flow Laboratories, McLean, Va.) were coated by incubation with 100 μl of each substrate in PBS at 37° C. for 1 hour. 96-well flat-bottomed tissue culture plates were coated with human plasma fibronectin for 1 hour at 37° C. After incubation, wells were washed with PBS, then blocked with 1% bovine serum albumin (BSA) for one hour. Control wells were filled with 1% BSA. SW480 cells were detached using 10 mM EDTA and resuspended in serum-free DMEM. For blocking experiments, cells were incubated with 10 μg/ml of the antibody for 15 minutes at 4° C. before plating. The plates were centrifuged at 10 g for 5 minutes before incubation for 1 hour at 37° C. in humidified 5% CO2. Nonadherent cells were removed by centrifugation (top side down) at 10 g for 5 minutes. Attached cells were stained with 0.5% crystal violet, and the wells were washed with PBS. The relative number of cells in each well was evaluated after solubilization in 40 μl of 2% Triton X-100 by measuring absorbance at 595 nm in a microplate reader. All determinations were carried out in triplicate.
Table 2 provides the IC50 (nM) results of an alpha-5-beta-1 integrin cell adhesion assay for the compounds shown. The assay was performed following the procedures set forth in Example 1 and as described by Yokosaki et al, J. Biol. Chem., 271: (39): 24144-24150 (1996).
`CS(=O)(=O)c1ccc(-c2cc(Cl)c(C(=O)N[C@@H](CNC(=O)CNC(=O)c3cccc(N=C(N)N)c3)C(=O)O)c(Cl)c2)cc1` [SU15210-0110-01, (S)-2-(3,5-dichloro-4′-(methylsulfonyl)biphenyl-4-ylcarboxamido)-3-(2-(3 guanidinobenzamido)acetamido)propanoic acid] gave a pIC50 above 7.00.
Molecule `O=C(CNC(=O)c1cccc(NC2=NCCCN2)c1)NC[C@H](NC(=O)c1c(Cl)cc(-c2ccccc2)cc1Cl)C(=O)O` [SU15210-0147-01, (S)-2-(3,5-dichlorobiphenyl-4-ylcarboxamido)-3-(2-(3-(1,4,5,6-tetrahydropyrimidin-2-ylamino)benzamido)acetamido)propanoic acid] had a pIC50 above 7.00.
Same read-out and setting: to `O=C(CCc1ccc2c(n1)NCCC2)NCC(=O)NC[C@H](NC(=O)c1c(Cl)cc(-c2ccccc2)cc1Cl)C(=O)O` [SU15210-0151-01, (S)-2-(3,5-dichloro-[1,1′-biphenyl]-4-carboxamido)-3-(2-(3-(5,6,7,8-tetrahydro-1,8-naphthyridin-2-yl)propanamido)acetamido)propanoic acid] belongs 6.00 to 7.00.
On the same count and under the same terms, to `CNc1cccc(CCC(=O)NCC(=O)NC[C@H](NC(=O)c2c(Cl)cc(-c3ccccc3)cc2Cl)C(=O)O)n1` [SU15210-0152-01, (S)-2-(3,5-dichlorobiphenyl-4-ylcarboxamido)-3-(2-(3-(6-(methylamino)pyridin-2-yl)propanamido)acetamido)propanoic acid] belongs 5.00 to 6.00; to `C/N=C(\NC)Nc1cccc(C(=O)NCC(=O)NC[C@H](NC(=O)c2c(Cl)cc(-c3ccccc3)cc2Cl)C(=O)O)c1` [SU15210-0193-01, (S,E)-2-(3,5-dichlorobiphenyl-4-ylcarboxamido)-3-(2-(3-(2,3-dimethylguanidino)benzamido)acetamido)propanoic acid], 6.00 to 7.00.
Same read-out and setting: under `O=C(CNC(=O)c1cccc(NC2=NCC(F)(F)CN2)c1)NC[C@H](NC(=O)c1c(Cl)cc(-c2ccccc2)cc1Cl)C(=O)O` [SU15210-0200, (S)-2-(3,5-dichlorobiphenyl-4-ylcarboxamido)-3-(2-(3-(5,5-difluoro-1,4,5,6-tetrahydropyrimidin-2-ylamino)benzamido)acetamido)propanoic acid] stands above 7.00; under `CN(CC(=O)NC[C@H](NC(=O)c1c(Cl)cc(-c2ccccc2)cc1Cl)C(=O)O)C(=O)c1cccc(NC(=N)N)c1` [SU15210-0202-01, (S)-2-(3,5-dichlorobiphenyl-4-ylcarboxamido)-3-(2-(3 guanidino-N-methylbenzamido)acetamido)propanoic acid], 6.00 to 7.00.
As to `COC(=O)[C@H](CNC(=O)CNC(=O)c1cc(C#N)cc(N/C(=N/C(=O)OC(C)(C)C)NC(=O)OC(C)(C)C)c1)NC(=O)c1c(Cl)cc(-c2ccccc2)cc1Cl` [SU15210-0206-01], the pIC50 is above 7.00.
`O=C(CNC(=O)c1cccc(NC2=NCCCS2)c1)NC[C@H](NC(=O)c1c(Cl)cc(-c2ccccc2)cc1Cl)C(=O)O` [SU15210-0230-01] gave a pIC50 above 7.00.
Molecule `O=C(CNC(=O)c1cccc(NC2=NCC(F)CN2)c1)NC[C@H](NC(=O)c1c(Cl)cc(-c2ccc3cn[nH]c3c2)cc1Cl)C(=O)O` (stereo partly drawn) [SU15210-0241-01, (2S)-2-(2,6-dichloro-4-(1H-indazol-6-yl)benzamido)-3-(2-(3-(5-fluoro-1,4,5,6-tetrahydropyrimidin-2-ylamino)benzamido)acetamido)propanoic acid] gave a pIC50 above 7.00.
Still for that read-out and setting: under `O=C(CNC(=O)c1cccc(NC2=NCC(F)CN2)c1)NC[C@H](NC(=O)c1c(Cl)cc(N2CCOCC2)cc1Cl)C(=O)O` (stereo partly drawn) [SU15210-0248-01, (2 S)-2-(2,6-dichloro-4-morpholinobenzamido)-3-(2-(3-(5-fluoro-1,4,5,6-tetrahydropyrimidin-2-ylamino)benzamido)acetamido)propanoic acid] stands above 7.00; under `O=C(CNC(=O)c1cccc(NC2=NCC(F)CN2)c1)NC[C@H](NC(=O)c1c(Cl)cc(N2CCS(=O)(=O)CC2)cc1Cl)C(=O)O` (stereo partly drawn) [SU15210-0253-01], above 7.00.
The same measure, in the same setting: to `C[C@@H](NC(=O)c1cccc(NC2=NCC(F)CN2)c1)C(=O)NC[C@H](NC(=O)c1c(Cl)cc(-c2ccccc2)cc1Cl)C(=O)O` (stereo partly drawn) [SU15210-0254, (2S)-2-[(2,6-dichloro-4-phenyl-benzoyl)amino]-3-[[(2R)-2-[[3-[(5-fluoro-1,4,5,6-tetrahydropyrimidin-2-yl)amino]benzoyl]amino]propanoyl]amino]propanoic acid] belongs 6.00 to 7.00; to `O=C(CNC(=O)c1cccc(NC2=NCC(F)(F)CN2)c1)NC[C@H](NC(=O)c1c(Cl)cc(N2CCOCC2)cc1Cl)C(=O)O` [SU15210-0271-01, (S)-2-(2,6-dichloro-4-morpholinobenzamido)-3-(2-(3-(5,5-difluoro-1,4,5,6-tetrahydropyrimidin-2-ylamino)benzamido)acetamido)propanoic acid], above 7.00.
Still for that read-out and setting: under `O=C(CNC(=O)c1cccc(NC2=NCC(F)(F)CN2)c1)NC[C@H](NC(=O)c1c(Cl)cc(-c2ccc3cn[nH]c3c2)cc1Cl)C(=O)O` [SU15210-0272-01, (S)-2-(2,6-dichloro-4-(1H-indazol-6-yl)benzamido)-3-(2-(3-(5,5-difluoro-1,4,5,6-tetrahydropyrimidin-2-ylamino)benzamido)acetamido)propanoic acid] stands above 7.00.

The same assay, now with this note: cell adhesion assay, SW480 cells, fibronectin-coated plates; Table 1.
With `N=C(N)Nc1cccc(C(=O)NCC(=O)NC[C@H](NC(=O)c2c(Cl)cccc2Cl)C(=O)O)c1`, the pIC50 is above 7.00.
As to `N=C(N)Nc1cccc(C(=O)NCC(=O)NC[C@H](NC(=O)c2c(Cl)cc(N3CCOCC3)cc2Cl)C(=O)O)c1`, the pIC50 was above 7.00.
The same measure, in the same setting: to `O=C(CNC(=O)c1cccc(NC2=NCCCN2)c1)NC[C@H](NC(=O)c1c(Cl)cccc1Cl)C(=O)O` belongs above 7.00.
`N=C(N)Nc1cccc(C(=O)NCC(=O)NC[C@H](NC(=O)c2c(Cl)cc(-c3ccccc3)cc2Cl)C(=O)O)c1` showed a pIC50 above 7.00.
Same read-out and setting: to `Cc1cccc(Cl)c1C(=O)N[C@@H](CNC(=O)CNC(=O)c1cccc(NC(=N)N)c1)C(=O)O` belongs above 6.00; to `N=C(N)Nc1ccc2c(c1)C(NCC(=O)NC[C@H](NC(=O)c1c(Cl)cccc1Cl)C(=O)O)CCO2` (stereo partly drawn), above 6.00.
The same measure, in the same setting: under `N=C(N)Nc1ccc2ncn(CCC(=O)NC[C@H](NC(=O)c3c(Cl)cccc3Cl)C(=O)O)c2c1` stands above 5.00.
Regarding `Cc1ccnc(Nc2cccc(C(=O)NCC(=O)NC[C@H](NC(=O)c3c(Cl)cccc3Cl)C(=O)O)c2)c1`, the pIC50 is above 5.00.
On the same count and under the same terms, to `N#C/N=C(\N)Nc1cccc(C(=O)NCC(=O)NC[C@@H](NC(=O)c2c(Cl)cccc2Cl)C(=O)O)c1` belongs above 5.00.
`COc1ccc(Nc2cccc(C(=O)NCC(=O)NC[C@H](NC(=O)c3c(Cl)cccc3Cl)C(=O)O)c2)nc1` showed a pIC50 above 4.30.
Same read-out and setting: to `N#C/N=C(\N)Nc1cccc(C(=O)NCC(=O)NC[C@H](NC(=O)c2c(Cl)cccc2Cl)C(=O)O)c1` [drawing 107] belongs above 7.00; to `N#C/N=C(\N)Nc1cccc(C(=O)NCC(=O)NC[C@H](NC(=O)c2c(Cl)cccc2Cl)C(=O)O)c1` [drawing 110], above 6.00.
